In ChEMBL document CHEMBL1201862, “PubChem BioAssay data set” (2004):
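Assay format: 96-well plates, 48-hour exposure. Here, GI50 denotes the concentration required for 50% inhibition of growth.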 Active and inactive are the calls of the source. No stated cut-off is given here; in the data, active = GI50 up to about 1.1 µM and inactive = higher.

What was measured:
Experiment in all cases: inhibition of tumour cell growth, NCI panel, 48 h
[1] = system: PC-3
[2] = system: BT-549
[3] = system: MDA-MB-435
[4] = system: HOP-18
[5] = system: LXFL 529
[6] = system: SNB-78
[7] = system: DMS-273
[8] = system: T47D
[9] = system: RXF 631

SMILES	GI50 [1]	GI50 [2]	GI50 [3]	GI50 [4]	GI50 [5]	GI50 [6]	GI50 [7]	GI50 [8]	GI50 [9]
COC(=O)CC1(CNC(=O)OCc2ccccc2)OCCO1	> 100 µM (inactive)	> 100 µM (inactive)	> 100 µM (inactive)						
O=C(O)c1cc2c3c(c1)[C@H]1C=CC[C@H]1CN3CC1CC=CC21 (stereo partly drawn)				> 100 µM (inactive)	> 100 µM (inactive)	> 100 µM (inactive)	> 100 µM (inactive)		
COC(=O)C1=C(C(=O)OC)C(N(C)C)C(C(=O)OC)=C(C(=O)OC)S1	> 100 µM (inactive)	> 100 µM (inactive)	> 100 µM (inactive)					> 100 µM (inactive)	
CCCCC(C)C1CCC2(C)C=CC(=O)C(C)=C2C1O (stereo not drawn)				> 100 µM (inactive)		> 100 µM (inactive)	> 100 µM (inactive)		
CCCCCC1CC(C(C)=O)CN1c1ccc(F)cc1 (stereo not drawn)				13.1 µM (inactive)	32.1 µM (inactive)	36.4 µM (inactive)	35.6 µM (inactive)		
CCN(CC)c1ccc2c(c1)Oc1ccc(N(C(C)=O)c3ccccc3)cc1C21OC(=O)c2ccccc21 (stereo not drawn)	13.1 µM (inactive)	98.2 µM (inactive)	21 µM (inactive)					5.32 µM (inactive)	
COC(=O)c1c(-c2ccccc2)c2sc3ccccc3n2c1N	31.1 µM (inactive)	> 100 µM (inactive)	81.7 µM (inactive)					20.8 µM (inactive)	
Cc1ccc(-c2c(C#N)c(-c3ccc([N+](=O)[O-])cc3)c(C#N)c(=O)n2NS(=O)(=O)c2ccccc2)cc1	25.3 µM (inactive)	10.4 µM (inactive)	54.5 µM (inactive)						
C#Cc1c(C)c(/C=C/C(C)=C\C(=O)OC)n(C)c1C				> 100 µM (inactive)	94 µM (inactive)	> 100 µM (inactive)	> 100 µM (inactive)		
CN(C)CCCNc1ccc2nnn3c4ccc(O)cc4c(=O)c1c23	2.84 µM (inactive)	18.8 µM (inactive)	8.22 µM (inactive)	9.06 µM (inactive)	6.61 µM (inactive)	6.08 µM (inactive)		21 µM (inactive)	
Nc1ccc2[nH]c3c(-c4ccccc4)nccc3c2c1				> 100 µM (inactive)		> 55 µM (inactive)	53.3 µM (inactive)		
Nc1nc(Cl)cc(NCCCCCCCCCCCCNc2cc(Cl)nc(N)n2)n1				> 100 µM (inactive)	0.769 µM (active)		7.57 µM (inactive)		
[N-]=[N+]=CC(=O)OCC(N)C(=O)O (stereo not drawn)				625 µM (inactive)		586 µM (inactive)	0.245 µM (active)		
Cc1sc(N)c(S(=O)(=O)c2ccccc2)c1C	> 100 µM (inactive)	> 100 µM (inactive)	> 100 µM (inactive)					> 100 µM (inactive)	
COC(=O)c1ccc2c(c1)CCN2C(=O)c1cc2c(cc1Br)OCO2	0.573 µM (active)	7.18 µM (inactive)	0.151 µM (active)					4.11 µM (inactive)	
CN(C)CCCCN1CCc2c(n(C)c3ccccc23)C1=O		45.4 µM (inactive)	18.5 µM (inactive)					25.5 µM (inactive)	
COc1cc(Nc2nc3ccc(C(F)(F)F)cc3nc2C(=O)O)cc(OC)c1OC	24.4 µM (inactive)	19.2 µM (inactive)	24.3 µM (inactive)					26.8 µM (inactive)	
CC1(C)CCc2cc3c(cc2O1)OC(C)(C)CC3=O					81.5 µM (inactive)		71.3 µM (inactive)		
COc1cc(N/N=C/C#N)cc(OC)c1OC	> 10 µM (inactive)		> 10 µM (inactive)					4.65 µM (inactive)	

SMILES	GI50 [1]	GI50 [2]	GI50 [3]	GI50 [4]	GI50 [5]	GI50 [6]	GI50 [7]	GI50 [8]	GI50 [9]
O=C(CCC(=O)Nc1ccccc1C(F)(F)F)N/N=C1\C(=N\NC(=O)CCC(=O)Nc2ccccc2C(F)(F)F)C(c2ccc3c(c2)OCO3)Oc2ccccc21 (stereo not drawn)				> 100 µM (inactive)		25.8 µM (inactive)	5.58 µM (inactive)		14 µM (inactive)
CC(=O)OCC1OC(n2cc(F)c(=O)[nH]c2=O)C(NC(=O)OCc2ccccc2)C(OC(C)=O)C1OC(C)=O (stereo not drawn)				> 100 µM (inactive)		> 100 µM (inactive)	> 100 µM (inactive)		
O=C1C2=C(c3ccccc31)C(c1ccc(Cl)cc1)NC(S)=N2 (stereo not drawn)					14.8 µM (inactive)		20.3 µM (inactive)		
CS(=O)(=O)OCC1=C(COS(C)(=O)=O)C(=O)c2c(O)ccc(O)c2C1=O				> 100 µM (inactive)	> 100 µM (inactive)	> 100 µM (inactive)	> 100 µM (inactive)		> 100 µM (inactive)
O=C(Nc1cccc(C(F)(F)F)c1)C(=O)C(C(=O)c1ccc(Cl)c(Cl)c1)C1OC(=O)c2ccccc21 (stereo not drawn)				17.5 µM (inactive)	28.7 µM (inactive)	32.4 µM (inactive)	33.9 µM (inactive)		39.3 µM (inactive)
COc1ccc2c(c1)/C(=C/CCN(C)C)c1ccccc1S2	75.9 µM (inactive)		48 µM (inactive)					> 100 µM (inactive)	
COc1ccc(C23C(=O)c4ccccc4N2O[C@H]2C(=O)N(c4ccccc4)C(=O)[C@H]23)cc1 (stereo partly drawn)				> 100 µM (inactive)	> 100 µM (inactive)	> 100 µM (inactive)	> 100 µM (inactive)		> 100 µM (inactive)
O=C(O)c1nc2ccc(C(F)(F)F)cc2[nH]c1=O	> 100 µM (inactive)	> 100 µM (inactive)	> 100 µM (inactive)					> 100 µM (inactive)	
[N-]=[N+]=CC(=O)c1ccccc1C#CCCc1ccccc1				40.3 µM (inactive)			23.2 µM (inactive)		
CCCC(=O)Nc1cc(/C=C/C(=O)N2CC(CCl)c3c2cc(OCc2ccccc2)c2[nH]cc(C)c32)n(C)c1 (stereo not drawn)	0.103 µM (active)	0.159 µM (active)	0.251 µM (active)					0.225 µM (active)	
N#Cc1cc2c(cc1C#N)/C(=N\c1cccc(N)n1)N/C2=N\c1cccc(N)n1	17.9 µM (inactive)	32.2 µM (inactive)	19.1 µM (inactive)					21.8 µM (inactive)	
Nc1ncnc2c1ncn2[C@@H]1O[C@H](COP(=O)(O)O)[C@@H](O)[C@@H]1O				> 50 µM (inactive)		> 50 µM (inactive)	> 50 µM (inactive)		
CCOC(=O)/C(=N/Nc1ccc(Cl)cc1)N1C(=S)N(C)N=C(C)C=C1S			> 100 µM (inactive)					29.8 µM (inactive)	
CCCCCC/C(CC(=O)CCC(=O)NCCc1ccccc1)=N\NC(=O)c1ccc2ccccc2c1O				12.1 µM (inactive)	42.1 µM (inactive)	67.3 µM (inactive)			61.2 µM (inactive)
Cc1c2ccnc(-c3ccccc3)c2cc2c1[nH]c1ccccc12				2.15 µM (inactive)		4.32 µM (inactive)	0.425 µM (active)		
CCCCCCCCCCC(C)CCCCCCC(=O)O (stereo not drawn)				> 100 µM (inactive)	> 100 µM (inactive)	> 100 µM (inactive)	> 100 µM (inactive)		> 100 µM (inactive)
O=c1cc(N2CCCC2)[nH]c(=O)n1-c1cccc(C(F)(F)F)c1	> 100 µM (inactive)	> 100 µM (inactive)	> 100 µM (inactive)					> 100 µM (inactive)	
CC(C)NC(=O)OCc1c(COC(=O)NC(C)C)c(-c2cc[n+](COC(=O)Cc3ccccc3)cc2)n2c1CCC2	> 100 µM (inactive)	> 100 µM (inactive)	> 100 µM (inactive)					> 100 µM (inactive)	
C=C1C(=O)C[C@@]23CCC[C@@]12CC(O)C3 (stereo partly drawn)				6.79 µM (inactive)		28.2 µM (inactive)	17.3 µM (inactive)		
